Target: T1, hCRTH2 receptor (Homo sapiens, UniProt Q9Y5Y4)
T1 construct: expressed in transfected cells; host or cells: HEK293
T1 sequence (Q9Y5Y4 1-395): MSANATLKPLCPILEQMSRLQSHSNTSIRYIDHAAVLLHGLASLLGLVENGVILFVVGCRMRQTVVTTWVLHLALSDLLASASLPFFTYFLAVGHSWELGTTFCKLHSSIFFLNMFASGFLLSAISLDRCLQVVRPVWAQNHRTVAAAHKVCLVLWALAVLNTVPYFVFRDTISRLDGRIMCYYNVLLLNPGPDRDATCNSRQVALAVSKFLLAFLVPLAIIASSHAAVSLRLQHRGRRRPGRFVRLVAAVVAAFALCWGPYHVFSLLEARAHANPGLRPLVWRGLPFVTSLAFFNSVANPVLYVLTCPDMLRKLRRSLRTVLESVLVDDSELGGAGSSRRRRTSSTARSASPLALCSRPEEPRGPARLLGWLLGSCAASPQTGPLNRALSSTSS
Test: Radioligand displacement assay (3H-PGD2) on hCRTH2 receptor membranes
Type: binding
Settings: antagonistic activity

[1] = 3H-PGD2 displacement on HEK293-hCRTH2 membrane fragments
[2] = 3H-PGD2 radioligand displacement, HEK293-hCRTH2 membranes
[3] = radioligand displacement (3H-PGD2), hCRTH2 receptor membranes

Row | SMILES | IC50 [1] [µM] | IC50 [2] [µM] | also measured
1 | O=C(O)COc1ccc(F)cc1C1c2cccc(S(=O)(=O)c3ccccc3)c2CCN1C(=O)OCc1ccccc1 (racemic) [Example 187] | 0.241 | – | –
2 | Cc1cc2ccccc2n1CCC(=O)N1CCc2ccccc2C1c1cc(Cl)ccc1OCC(=O)O (racemic) [Example 446] | – | 0.175 | –
3 | Cc1ccc(OCC(=O)N2CCc3ccccc3C2c2cc(Cl)ccc2OCC(=O)O)cn1 (racemic) [Example 468] | – | 0.759 | –
4 | O=C(O)COc1ccc(Cl)cc1C1c2ccccc2CCN1C(=O)CCN1CCCc2ccccc21 (racemic) [Example 449] | – | 0.0261 | –
5 | O=C(O)COc1ccc(Cl)cc1C1c2ccccc2CCN1C(=O)COc1ccc(C(F)(F)F)nc1 (racemic) [Example 481] | – | 0.143 | –
6 | O=C(O)COc1ccc(Cl)cc1[C@@H]1c2ccc(F)cc2CCN1C(=O)CCn1ncc2cc(F)ccc21 [Example 395, (4-Chloro-2-{(S)-6-fluoro-2-[3-(5-fluoro-indazol-1-yl)-propionyl]-1,2,3,4-tetrahydro-isoquinolin-1-yl}-phenoxy)-acetic acid] | – | 0.0284 | –
7 | O=C(O)COc1ccc(Cl)cc1C1c2ccccc2CCN1C(=O)NCc1cccc(F)c1 (racemic) [Example 491] | – | 0.0198 | –
8 | Cc1nn(CCC(=O)N2CCc3cc(F)ccc3[C@H]2c2cc(Cl)ccc2OCC(=O)O)c2c(F)cccc12 [Example 392] | – | 0.273 | –
9 | COc1ccc(CCC(=O)N2CCc3ccccc3C2c2cc(F)ccc2OCC(=O)O)cc1 (racemic) [Example 130, (±)-(4-Fluoro-2-{2-[3-(4-methoxy-phenyl)-propionyl]-1,2,3,4-tetrahydro-isoquinolin-1-yl}-phenoxy)-acetic acid] | 0.27 | – | –
10 | O=C(O)COc1cc(F)ccc1C1c2ccccc2CCN1C(=O)OCc1ccccc1 (racemic) [Example 215, (±)-1-(2-Carboxymethoxy-4-fluoro-phenyl)-3,4-dihydro-1H-isoquinoline-2-carboxylic acid benzyl ester] | 0.027 | – | –
11 | O=C(O)COc1ccc(F)cc1C1c2ccccc2CCN1C(=O)NCCc1ccccc1 (racemic) [Example 200] | 0.031 | – | –
12 | Cn1cc(CCC(=O)N2CCc3ccccc3C2c2cc(Cl)ccc2OCC(=O)O)c2ccccc21 (racemic) [Example 76, (±)-(4-Chloro-2-{2-[3-(1-methyl-1H-indol-3-yl)-propionyl]-1,2,3,4-tetrahydro-isoquinolin-1-yl}-phenoxy)-acetic acid] | 0.00446 | – | –
13 | Cc1ccccc1COCC(=O)N1CCc2ccccc2C1c1cc(F)ccc1OCC(=O)O (racemic) [Example 192] | 0.0111 | – | –
14 | O=C(O)COc1ccc(Cl)cc1[C@@H]1c2ccc(F)cc2CCN1C(=O)CCn1ncc2cc(Cl)ccc21 [Example 396] | – | 0.152 | –
15 | O=C(O)COc1ccc(Cl)cc1C1c2ccccc2CCN1C(=O)OCCc1ccccc1Cl (racemic) [Example 176, (±)-1-(2-Carboxymethoxy-5-chloro-phenyl)-3,4-dihydro-1H-isoquinoline-2-carboxylic acid 2-(2-chloro-phenyl)-ethyl ester] | 0.0104 | – | –
16 | COc1ccc2onc(CC(=O)N3CCc4ccccc4C3c3cc(Cl)ccc3OCC(=O)O)c2c1 (racemic) [Example 101, (±)-(4-Chloro-2-{2-[2-(5-methoxy-benzo[d]isoxazol-3-yl)-acetyl]-1,2,3,4-tetrahydro-isoquinolin-1-yl}-phenoxy)-acetic acid] | 0.0196 | – | –
17 | COc1ccc2[nH]cc(CCC(=O)N3CCc4cc(F)ccc4C3c3cc(Cl)ccc3OCC(=O)O)c2c1 (racemic) [Example 433] | – | 0.0901 | –
18 | O=C(O)COc1ccc(F)cc1C1c2cc(F)ccc2CCN1C(=O)OCc1ccccc1 (racemic) [Example 41, (±)-1-(2-Carboxymethoxy-5-fluoro-phenyl)-7-fluoro-3,4-dihydro-1H-isoquinoline-2-carboxylic acid benzyl ester] | 0.0248 | – | –
19 | O=C(O)COc1ccc(Cl)cc1C1c2ccccc2CCN1C(=O)[C@@H]1C[C@H]1c1ccc(Cl)cc1Cl (mixture of isomers) [Example 158] | 0.0376 | – | –
20 | CC(C)COC(=O)N1CCc2ccccc2C1c1cc(Cl)ccc1OCC(=O)O (racemic) [Example 265] | 0.0376 | – | –
21 | O=C(O)COc1ccc(Cl)cc1C1c2ccccc2CCN1C(=O)CC1CC1 (racemic) [Example 68, (±)-{4-Chloro-2-[2-(2-cyclopropyl-acetyl)-1,2,3,4-tetrahydro-isoquinolin-1-yl]-phenoxy}-acetic acid] | 0.508 | – | –
22 | Cc1cccc(CCC(=O)N2CCc3ccccc3C2c2cc(Cl)ccc2OCC(=O)O)n1 (racemic) [Example 408] | – | 0.177 | –

Row | SMILES | IC50 [1] [µM] | IC50 [2] [µM] | also measured
23 | O=C(O)COc1ccc(Cl)cc1C1c2ccccc2CCN1C(=O)C1CC1c1ccccc1C(F)(F)F (single isomer, unassigned) [Example 156, (±)-(4-Chloro-2-{2-[(trans)-2-(2-trifluoromethyl-phenyl)-cyclopropanecarbonyl]-1,2,3,4-tetrahydro-iso-quinolin-1-yl}-phenoxy)-acetic acid (diatereoisomer 2)] | 0.0142 | – | –
24 | O=C(O)COc1ccc(F)cc1[C@@H]1c2ccccc2CCN1C(=O)OCc1ccccc1 [Example 221, (S)-1-(2-Carboxymethoxy-5-fluoro-phenyl)-3,4-dihydro-1H-isoquinoline-2-carboxylic acid benzyl ester] | 0.00291 | – | –
25 | CCS(=O)(=O)c1ccc2c(c1)C(c1cc(F)ccc1OCC(=O)O)N(C(=O)OCc1ccccc1)CC2 (racemic) [Example 181] | 0.572 | – | –
26 | Cn1ccc(COC(=O)N2CCc3ccccc3C2c2cc(Cl)ccc2OCC(=O)O)n1 (racemic) [Example 263] | 0.00791 | – | –
27 | O=C(O)COc1ccc(Cl)cc1C1c2ccccc2CCN1C(=O)CCCN1CCCC1=O (racemic) [Example 440] | – | 0.0557 | –
28 | O=C(O)COc1ccc(F)cc1C1c2ccccc2CCN1C(=O)CCc1c(Cl)cccc1Cl (racemic) [Example 53, (±)-(2-{2-[3-(2,6-Dichloro-phenyl)-propionyl]-1,2,3,4-tetrahydro-isoquinolin-1-yl}-4-fluoro-phenoxy)-acetic acid] | 0.877 | – | –
29 | O=C(COc1ccc(Cl)cc1[C@@H]1c2ccccc2CCN1C(=O)OCc1ccccc1)NS(=O)(=O)C(F)(F)F [Example 568, (S)-1-[5-Chloro-2-(2-oxo-2-trifluoromethanesulfonylamino-ethoxy)-phenyl]-3,4-dihydro-1H-isoquinoline-2-carboxylic acid benzyl ester] | – | – | IC50 [3]: 0.00918 µM
30 | O=C(O)COc1ccc(F)cc1C1c2ccccc2CCN1C(=O)CCCCc1ccccc1 (racemic) [Example 143, (±)-{4-Fluoro-2-[2-(5-phenyl-pentanoyl)-1,2,3,4-tetrahydro-isoquinolin-1-yl]-phenoxy}-acetic acid] | 0.395 | – | –
31 | COc1ccccc1CCC(=O)N1CCc2ccccc2C1c1cc(F)ccc1OCC(=O)O (racemic) [Example 128, (±)-(4-Fluoro-2-{2-[3-(2-methoxy-phenyl)-propionyl]-1,2,3,4-tetrahydro-isoquinolin-1-yl}-phenoxy)-acetic acid] | 0.069 | – | –
32 | O=C(O)COc1ccc(Cl)cc1C1c2ccccc2CCN1C(=O)CCn1cnc2ccccc21 (racemic) [Example 451] | – | 0.0641 | –
33 | O=C(O)COc1ccc(F)cc1C1c2ccccc2CN1C(=O)OCc1ccccc1 (racemic) [Example 499] | – | 0.0254 | –
34 | O=C(O)COc1ccc(Cl)cc1C1c2ccccc2CCN1C(=O)CCN1C(=O)COc2ccc(Cl)cc21 (racemic) [Example 442] | – | 0.347 | –
35 | O=C(O)COc1ccc(Cl)cc1[C@@H]1c2ccccc2CCN1C(=O)[C@@H]1C[C@H]1c1ccccc1C(F)(F)F [Example 562, (4-Chloro-2-{(S)-2-[(1R,2R)-2-(2-trifluoromethyl-phenyl)-cyclopropanecarbonyl]-1,2,3,4-tetrahydro-isoquinolin-1-yl}-phenoxy)-acetic acid] | – | – | IC50 [3]: 0.00375 µM
36 | O=C(O)COc1ccc(Cl)cc1[C@@H]1c2ccccc2CCN1C(=O)OCc1cncnc1 [Example 284, (S)-1-(2-Carboxymethoxy-5-chloro-phenyl)-3,4-dihydro-1H-isoquinoline-2-carboxylic acid pyrimidin-5-ylmethyl ester] | – | 0.00086 | –
37 | Cc1c(CCC(=O)N2CCc3ccccc3C2c2cc(Cl)ccc2OCC(=O)O)c2ccccc2n1C (racemic) [Example 457] | – | 0.0608 | –
38 | COc1cncc(OCC(=O)N2CCc3ccccc3C2c2cc(Cl)ccc2OCC(=O)O)c1 (racemic) [Example 477] | – | 0.288 | –
39 | Cc1ccc(OCC(=O)N2Cc3ccccc3C2c2cc(Cl)ccc2OCC(=O)O)c(C)n1 (racemic) [Example 512] | – | 0.0425 | –
40 | O=C(OCc1ccccc1)N1CCc2ccccc2C1c1cc(Cl)ccc1OCc1noc(=O)[nH]1 (racemic) [Example 572, (±)-1-[5-Chloro-2-(5-oxo-4,5-dihydro-[1,2,4]oxadiazol-3-ylmethoxy)-phenyl]-3,4-dihydro-1H-isoquinoline-2-carboxylic acid benzyl ester] | – | – | IC50 [3]: 0.325 µM
41 | O=C(O)COc1ccc(Cl)cc1C1c2ccccc2CN1C(=O)CCn1ncc2ccc(Cl)cc21 (centres unmarked) [Example 549] | – | 0.18 | –
42 | O=C(O)COc1ccc(Cl)cc1C1c2ccccc2CN1C(=O)CCN1CCc2ccccc21 (racemic) [Example 514] | – | 0.0388 | –
43 | Cc1ccc(OCC(=O)O)c(C2c3ccccc3CCN2C(=O)OCc2ccccc2)c1 (racemic) [Example 3, (±)-1-(2-Carboxymethoxy-5-methyl-phenyl)-3,4-dihydro-1H-isoquinoline-2-carboxylic acid benzyl ester] | 0.0627 | – | –
44 | C[C@H](OC(=O)N1CCc2ccccc2[C@H]1c1cc(Cl)ccc1OCC(=O)O)c1ccccc1 [Example 261] | 0.0971 | – | –
